Holding throughout (assay type): cell-based
The target in assay [1] is T1, GHSR-1a (HEK293/GHSR1a cell line) (Homo sapiens, UniProt Q92847).
T1 construct: expressed in transfected cells; host or cells: HEK293/GHSR1a cell line
Description: Ghrelin agonist potency (EC50) with calcium FLIPR assay. The protocol:
Evaluation of Ghrelin Agonist (EC50) and Antagonist Potency (IC50) with Calcium FLIPR Assay:
The intracellular calcium assay was carried out in a 384-well format FLIPR™ (Molecular Device) HEK293/GHSR1a cell line. Cells were seeded 24 hr prior to the experiments at an optimal density per well. Preincubation with selected calcium dye lasted for 30-60 min at room temperature or 37° C. Test compounds, dissolved in DMSO, were added at the appropriate time and incubated for 15 min followed by the addition of ghrelin with FlexStation or FLIPR. Relative fluorescence was monitored by the FLIPR™ Molecular Device. EC50 and IC50 values were estimated from dose-response data using GraphPad Prism software. To check for GHSR-1a agonism, the compound was added at t=20 sec. and the calcium response was followed for 2 minutes. To check for GHSR-1a antagonism, the compound and Ghrelin (10 nM) were added to the cells at t=20 sec. and the calcium response was measured for 2 minutes. The potency of the antagonist was calculated by its ability to reduce the ghrelin response. Dose-response curves were made for relevant antagonists.

The target of assay [2] is T1, GHSR-1a (HEK293/GHSR1a cell line). Description: Ghrelin antagonist potency (IC50) with calcium FLIPR assay, ghrelin 10 nM. The essentials: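 In this assay, compound alone assesses agonism, while compound co-added with ghrelin at 10 nM assesses antagonism. In both modes the calcium-dye signal is tracked for 2 min from t=20 sec.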
Assay [3] has as its target T2, recombinant human ghrelin receptor (HEK293/GRLN) (Homo sapiens, UniProt Q92847).
T2 construct: expressed in transfected cells
Description: Ghrelin inverse agonist potency (EC50) with IP-1 (IP-One HTRF) assay. The following applies: IP-1 assay. The essentials: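 IP-1 accumulation was measured by HTRF (IP1-d2/Tb-cryptate, 620/665 nm read after 1 hour at room temperature) following 1 hour of compound treatment at 37° C. Cells were HEK293 stably expressing human ghrelin receptor, plated a day earlier on Matrigel. Inverse agonist potency was reported as EC50.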
On the technique in general: Time-resolved FRET reads energy transfer from a long-lived donor to a nearby acceptor.

[4] abbreviates: HEK293/GHSR1a, read-out: Activity EC50/EMax: EC50 (ghrelin agonist potency).
The mark [5] stands for this setting: HEK293/GHSR1a, ghrelin 10 nM, read-out: Activity IC50 (ghrelin antagonist potency).
Setting [6] is: ghrelin agonist potency, read-out: Activity EC50/EMax.
The mark [7] stands for this setting: ghrelin antagonist potency, read-out: Activity IC50.
Where [8] appears, read: ghrelin inverse agonist potency, read-out: Activity EC50.

Where two headings read alike, the source gives them in different places.

T1 sequence (Q92847 whole entry): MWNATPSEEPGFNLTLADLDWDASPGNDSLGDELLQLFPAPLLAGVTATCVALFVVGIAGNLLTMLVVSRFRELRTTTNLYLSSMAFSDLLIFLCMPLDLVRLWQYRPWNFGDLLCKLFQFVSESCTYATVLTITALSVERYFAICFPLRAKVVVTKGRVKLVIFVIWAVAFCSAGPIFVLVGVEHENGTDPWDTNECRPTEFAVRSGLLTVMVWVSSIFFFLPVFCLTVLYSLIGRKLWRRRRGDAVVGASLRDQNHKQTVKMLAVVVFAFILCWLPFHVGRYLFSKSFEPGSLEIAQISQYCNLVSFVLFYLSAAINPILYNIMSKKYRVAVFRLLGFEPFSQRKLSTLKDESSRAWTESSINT
T2 sequence (Q92847 whole entry): as above

A word on the IC50: it is the concentration at which inhibition is half-maximal. As to `CCc1ccc(Cl)c(C(=O)NC(=O)Nc2ccc(S(=O)(=O)Cc3ccc(CO)cc3)cc2)c1` [H1255, 2-chloro-5-ethyl-N-((4-((4-(hydroxymethyl)benzyl)sulfonyl)phenyl)carbamoyl)benzamide], the EC50 in assay [1] (setting [4]) was > 30 µM. Besides, the IC50 in assay [2] (setting [5]) stood at 2.33 µM.
Consider `CC(NC(=O)Nc1ccc(S(=O)(=O)Cc2ccc3c(c2)CNC3)cc1)c1cc(N2CCOCC2)ccc1Cl` (stereo not shown) [H1283, 1-(1-(2-chloro-5-morpholinophenyl)ethyl)-3-(4-((isoindolin-5-ylmethyl)sulfonyl)phenyl)urea], for which the EC50 in assay [1] (setting [4]) was > 30 µM; in assay [3] (HEK293/GRLN, read-out: Activity EC50 (ghrelin inverse agonist potency)), 0.201 µM. Moreover, the IC50 in assay [2] (setting [5]) worked out at 0.379 µM.
On to `CC(NC(=O)Nc1ccc2c(c1)S(=O)(=O)C(c1ccc3c(c1)CNC3)C2=O)c1ccccc1` (stereo not shown) [H1522, 1-(2-(isoindolin-5-yl)-1,1-dioxido-3-oxo-2,3-dihydrobenzo[b]thiophen-6-yl)-3-(1-phenylethyl)urea], for which the results for the EC50 in assay [1] (setting [6]) and in assay [3] (setting [8]) were > 30 µM and 1.89 µM, respectively. The IC50 in assay [2] (setting [7]) was 3.85 µM.
Taken in the same sequence, the figures for `CC(c1ccccc1)N(O)C(=O)Nc1ccc(S(=O)(=O)Cc2ccc3c(c2)CN(C)C3)cc1` (stereo not shown) [H1471, 1-hydroxy-3-(4-(((2-methylisoindolin-5-yl)methyl)sulfonyl)phenyl)-1-(1-phenylethyl)urea] were > 30 µM, 0.00389 µM and 0.0118 µM.
As for `CC(NC(=O)Nc1ccc(S(=O)(=O)Cc2cccc(CN3CCCC3)c2)cc1)c1ccccc1` (stereo not shown) [H1318, 1-(1-phenylethyl)-3-(4-((3-(pyrrolidin-1-ylmethyl)benzyl)sulfonyl)phenyl)urea], in assay [1] (setting [4]), the EC50 was > 30 µM. For the same compound, the IC50 in assay [2] (setting [5]) came to 5.31 µM.
Taken in the same sequence, the figures for `CC1Cc2cc(CS(=O)(=O)c3ccc(NC(=O)N[C@@H](C)c4cccc(Cl)c4Cl)cc3)ccc2CN1` (stereo partly drawn) [H1403, 1-((S)-1-(2,3-dichlorophenyl)ethyl)-3-(4-(((3-methyl-1,2,3,4-tetrahydroisoquinolin-6-yl)methyl)sulfonyl)phenyl)urea] were > 30 µM and 0.0015 µM.
In the case of `CC(NC(=O)Nc1ccc(S(=O)(=O)N2CC3CNCC3C2)cc1)c1ccccc1` (stereo not shown) [H1277, 1-(4-((hexahydropyrrolo[3,4-c]pyrrol-2(1H)-yl)sulfonyl)phenyl)-3-(1-phenylethyl)urea], the EC50 in assay [1] (setting [4]) is > 30 µM. The IC50 in assay [2] (setting [5]) came to 8.76 µM.
Taken in the same sequence, the figures for `CC(NC(=O)Nc1ccc(S(=O)(=O)Cc2ccncc2)cc1)c1ccccc1` (stereo not shown) [H1280, 1-(1-phenylethyl)-3-(4-((pyridin-4-ylmethyl)sulfonyl)phenyl)urea] were > 30 µM and 0.905 µM.
Consider `CC1Cc2cc(CS(=O)(=O)c3ccc(NC(=O)NC(C)c4cccc(Cl)c4Cl)c(F)c3)ccc2CN1` (stereo not shown) [H1401, 1-(1-(2,3-dichlorophenyl)ethyl)-3-(2-fluoro-4-(((3-methyl-1,2,3,4-tetrahydroisoquinolin-6-yl)methyl)sulfonyl)phenyl)urea], for which the EC50 in assay [1] (setting [4]) is > 30 µM. For the same compound, in assay [2] (setting [5]), the 50% inhibitory concentration (IC50) came to 0.0034 µM.
Turning to `C[C@H](NC(=O)Nc1ccc(S(=O)(=O)Cc2ccc3c(c2)C2CCC3N2C)cc1)c1ccccc1` (stereo partly drawn) [H1325, 1-(4-(((9-methyl-1,2,3,4-tetrahydro-1,4-epiminonaphthalen-6-yl)methyl)sulfonyl)phenyl)-3-((S)-1-phenylethyl)urea], the EC50 in assay [1] (setting [4]) was > 30 µM. Also, the IC50 in assay [2] (setting [5]) is 3.83 µM.
Taken in the same sequence, the figures for `CCN(CC)c1ccc(CS(=O)(=O)c2ccc(NC(=O)NC(C)c3cccc(Cl)c3Cl)cc2)cc1` (stereo not shown) [H1360, 1-(1-(2,3-dichlorophenyl)ethyl)-3-(4-((4-(diethylamino)benzyl)sulfonyl)phenyl)urea] were > 30 µM and > 30 µM.
As for `C[C@H](NC(=O)Nc1ccc(S(=O)(=O)Cc2ccc3c(c2)C2CCC3N2)cc1)c1ccccc1` (stereo partly drawn) [H1324, 1-((S)-1-phenylethyl)-3-(4-(((1,2,3,4-tetrahydro-1,4-epiminonaphthalen-6-yl)methyl)sulfonyl)phenyl)urea], the EC50 in assay [1] (setting [4]) is > 30 µM. Further, the IC50 in assay [2] (setting [5]) is 10.5 µM.
On the same counts, the results for `CC(NC(=O)Nc1ccc(S(=O)(=O)Cc2ccc3nn(C)cc3c2)cc1)c1ccccc1` (stereo not shown) [H1329, 1-(4-(((2-methyl-2H-indazol-5-yl)methyl)sulfonyl)phenyl)-3-(1-phenylethyl)urea] are > 30 µM and > 30 µM.
On the same counts, the results for `C[C@H](NC(=O)Nc1ccc(S(=O)(=O)Cc2ccc(CN3CCC(CO)C3)cc2)cc1)c1ccccc1` (stereo partly drawn) [H1314, 1-(4-((4-((3-(hydroxymethyl)pyrrolidin-1-yl)methyl)benzyl)sulfonyl)phenyl)-3-((S)-1-phenylethyl)urea] are > 30 µM and 3.1 µM.
On the same counts, the results for `CC(NC(=O)Nc1ccc(S(=O)(=O)Cc2ccc3c(c2)CNC3=O)cc1)c1ccccc1` (stereo not shown) [H1292, 1-(4-(((1-oxoisoindolin-5-yl)methyl)sulfonyl)phenyl)-3-(1-phenylethyl)urea] are > 30 µM and > 30 µM.
For `CCc1ccc(Cl)c(C(=O)NC(=O)Nc2ccc(S(=O)(=O)Nc3ccc4c(c3)CNC4)cc2)c1` [H1259, 2-chloro-5-ethyl-N-((4-(N-(isoindolin-5-yl)sulfamoyl)phenyl)carbamoyl) benzamide], the EC50 in assay [1] (setting [4]) was > 30 µM. In addition, the IC50 in assay [2] (setting [5]) was found to be 0.272 µM.
Taken in the same sequence, the figures for `COc1cc(N2C[C@@H](C)N[C@@H](C)C2)ccc1NS(=O)(=O)c1ccc(NC(=O)N[C@H](C)c2cccc(Cl)c2Cl)cc1` [H1362, 4-(3-((R)-1-(2,3-dichlorophenyl)ethyl)ureido)-N-(4-((cis)-3,5-dimethylpiperazin-1-yl)-2-methoxyphenyl) benzenesulfonamide] were > 30 µM and 1.55 µM.
Taken in the same sequence, the figures for `CC(NC(=O)Nc1ccc(S(=O)(=O)CC2CCCN(CC3CCCO3)C2)cc1)c1cccc(Cl)c1Cl` (stereo not shown) [H1375, 1-(1-(2,3-dichlorophenyl)ethyl)-3-(4-(((1-((tetrahydrofuran-2-yl)methyl)piperidin-3-yl)methyl)sulfonyl)phenyl)urea] were > 30 µM and > 30 µM.
Taken in the same sequence, the figures for `C[C@H](NC(=O)Nc1ccc2c(c1)CC(c1ccc3c(c1)CN(C)C3)S2(=O)=O)c1ccccc1` (stereo partly drawn) [H1285, 1-(2-(2-methylisoindolin-5-yl)-1,1-dioxido-2,3-dihydrobenzo[b]thiophen-5-yl)-3-((S)-1-phenylethyl)urea] were 0.147 µM and 0.065 µM.
For the compound `C[C@H](NC(=O)Nc1ccc(S(=O)(=O)Cc2ccc(CN3CCC(O)C3)cc2)cc1)c1ccccc1` (stereo partly drawn) [H1313, 1-(4-((4-((3-hydroxypyrrolidin-1-yl)methyl)benzyl)sulfonyl)phenyl)-3-((S)-1-phenylethyl)urea], the EC50 in assay [1] (setting [4]) was > 30 µM. The IC50 in assay [2] (setting [5]) is 1.46 µM.
Taken in the same sequence, the figures for `CC(c1ccccc1)N(C)C(=O)Nc1ccc(S(=O)(=O)Cc2ccc3c(c2)CNC3)cc1F` (stereo not shown) [H1399, 3-(2-fluoro-4-((isoindolin-5-ylmethyl)sulfonyl)phenyl)-1-methyl-1-(1-phenylethyl)urea] were > 30 µM and 2.06 µM.
On the same counts, the results for `CCN(CC)CCCS(=O)(=O)c1ccc(NC(=O)NC(C)c2cccc(Cl)c2Cl)cc1` (stereo not shown) [H1361, 1-(1-(2,3-dichlorophenyl)ethyl)-3-(4-((3-(diethylamino)propyl)sulfonyl)phenyl)urea] are > 30 µM and 1.61 µM.
On the same counts, the results for `CC1Cc2cc(CS(=O)(=O)c3ccc(NC(=O)N(C)C(C)c4cccc(Cl)c4Cl)c(F)c3)ccc2CN1` (stereo not shown) [H1402, 1-(1-(2,3-dichlorophenyl)ethyl)-3-(2-fluoro-4-(((3-methyl-1,2,3,4-tetrahydroisoquinolin-6-yl)methyl)sulfonyl)phenyl)-1-methylurea] are > 30 µM and 0.075 µM.
Consider `CC(NC(=O)Nc1ccc(S(=O)(=O)Cc2ccc3c(c2)C(N2CCCC2)CC3)cc1)c1ccccc1` (stereo not shown) [H1294, 1-(1-phenylethyl)-3-(4-(((3-(pyrrolidin-1-yl)-2,3-dihydro-1H-inden-5-yl)methyl)sulfonyl)phenyl)urea], for which the EC50 in assay [1] (setting [4]) came to 12.9 µM. Further, the 50% inhibitory concentration (IC50) in assay [2] (setting [5]) is 3.32 µM.
On the same counts, the results for `C[C@H](NC(=O)Nc1ccc(S(=O)(=O)Nc2ccc3c(c2)CCN(C)C3)cc1)c1ccccc1` [H1315, (S)-N-(2-methyl-1,2,3,4-tetrahydroisoquinolin-6-yl)-4-(3-(1-phenylethyl)ureido) benzenesulfonamide] are > 30 µM and 0.301 µM.
Taken in the same sequence, the figures for `C[C@H](NC(=O)Nc1ccc(S(=O)(=O)Cc2ccc(C3CCCN3)cc2)cc1)c1ccccc1` (stereo partly drawn) [H1328, 1-((S)-1-phenylethyl)-3-(4-((4-(pyrrolidin-2-yl)benzyl)sulfonyl)phenyl)urea] were > 30 µM and 0.546 µM.

The values above are taken from patent US10501479B2, “Benzenesulfonyl-asymmetric ureas and medical uses thereof” (HELSINN HEALTHCARE SA, priority 2016, dated 2019).
